Assay results taken from PubChem BioAssay AID1117319 (Southern Research Institute, 2015).
Records with an inconclusive call do not appear.

molecular target: Virion infectivity factor (Human immunodeficiency virus type 1 group M subtype B (isolate BH10)) + Virion infectivity factor (Human immunodeficiency virus type 1 group M subtype B (isolate BRU/LAI)) + Virion infectivity factor (Human immunodeficiency virus type 1 group M subtype B (isolate PCV12)) + Virion infectivity factor (Human immunodeficiency virus type 1 group M subtype B (isolate HXB2)) + DNA dC->dU-editing enzyme APOBEC-3G (Homo sapiens) (UniProt P69720+P69721+P69722+P69723+Q9HC16); experiment: inhibitors of Vif binding to APOBEC3G peptide, primary screen, biochemical, TR-FRET, GST-Vif 1-94, biotin-A3G peptide, dose response retest (AID 1117319);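 note: Vif residues 1-94 fused to GST binding biotinylated APOBEC3G peptide 110-148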

Compound	IC50 [µM]
O=C(Nc1ccccc1)C1=C(O)CC(c2ccco2)CC1=Nc1ccccc1 (stereo unspecified)	15.1
CN1c2ccsc2C(O)=C(C(=S)Nc2ccc(F)c(Cl)c2)S1(=O)=O	1.12
CN(CC(=O)Nc1ccc(F)cc1)C(=O)c1cc(-c2ccco2)nc2ccccc12	5.48
O=C(c1cc(-c2ccco2)on1)N1CCN(c2ccccc2)CC1	31.2
Cc1ccc(-c2nc3s/c(=C\c4ccco4)c(=O)n3n2)cc1	27.6
NC(=S)N=Nc1c(O)cc(O)c2[nH]c(=O)ccc12	8.04
N=C1/C(=C/c2ccc(Br)o2)C(=O)N=C2SC(CC(=O)N3CCCC3)=NN12	27.8
N#CC1=C(Nc2ccccc2)SC=C(c2ccc(Br)cc2)N=C1N1CCOCC1	97.1
O=C(/C=C/c1ccco1)c1cccnc1	14.1
COCCNC(=O)COC(=O)c1[nH]c(C)c(C(C)=O)c1C	9.88
O=C1C2C3C=CC(C3)C2C(=O)N1CNc1ccc(O)cc1 (stereo unspecified)	2.78
CCN1C(=O)/C(=C\c2ccco2)C(C(=O)OC)=C1C	23
O=C(O)c1c2c(nc3ccc(Cl)cc13)CCC2	23.4
O=C1CC(Nc2ccc(N3CCOCC3)cc2)C(=O)N1Cc1ccccc1 (stereo unspecified)	2.29
Cc1cc(O)c(Oc2cc(C)cc(O)c2O)c(O)c1	13.8
COc1cc(CNc2ccc(O)cc2)cc(Br)c1OCc1ccccc1	3.04
COc1ccc2[nH]c(=O)c(CN(Cc3ccco3)C(c3nnnn3Cc3ccccc3)C(C)C)cc2c1 (stereo unspecified)	94.6
COCCn1nnnc1C(c1cc2cc(OC)c(OC)cc2[nH]c1=O)N1CCN(c2ccc(O)cc2)CC1 (stereo unspecified)	4.8
O=S(=O)(O)c1cc(Cl)cc(N=Nc2ccc(O)cc2O)c1O	49.4
O=C(CSc1nc2ccccc2n1CCc1ccccc1)c1ccc(O)c(O)c1	2.14
C=CCn1c(C)cc(-c2csc(N)n2)c1C	1.23

Compound	IC50 [µM]
Cc1cccc(C)c1NC(=O)c1ccc(-n2cnnn2)cc1	35.8
CCc1ccc(NC(=O)N(CCN2CCOCC2)Cc2ccc3c(c2)CCCN3CC)cc1	88.1
O=c1cc2c(=O)oc3cc(O)c(O)oc3c2c(O)c1O	1.68
O=S(=O)(O)c1cc(O)c2c(O)c(N=Nc3cc(Cl)ccc3O)c(S(=O)(=O)O)cc2c1	78.5
CCc1ccc(N2C(=O)NC(=O)/C(=C\C=C\c3ccco3)C2=O)cc1	7.09
CC(=C/C(=O)O)/C=C/c1ccc(Cl)o1	27.4
O=C(O)C1Nc2ccc(Br)cc2C2C=CCC12 (stereo unspecified)	1.56
Oc1ccc(-c2cn3c(n2)SCC3)cc1O	1.11
Cc1cc(C(C)c2ccccc2)c(O)c(CN2CCOCC2)c1C (stereo unspecified)	28.8
CC1(C)Cc2nc3sc(C(=O)O)c(N)c3cc2CS1	18.4
O=[N+]([O-])c1c(Nc2ccccc2O)cc(Cl)c2nonc12	9.34
O=CN/C=C/c1cc(O)ccc1O	1.72
COC(=O)c1ccc(CC(=O)c2c(C)cc(O)cc2O)o1	2.33
CCCCn1cnc2cc(NCc3ccncc3)ccc21	35.3
COc1ccc(/C=N/NC(=O)c2cc(O)c(O)c(O)c2)cc1Cn1cc([N+](=O)[O-])cn1	1.07
COc1ccc(S(=O)(=O)c2c(N)n(Cc3ccco3)c3nc4ccccc4nc23)cc1	3.47
CCCCC1=CC2=CC(=O)C(C)(OC(=O)C3CCCC3)C(=O)C2=CO1 (stereo unspecified)	15.2
O=C1CC=C2C3CC4N(CCC45c4cc(O)c(O)cc4N1C25)CC3=CCBr (stereo unspecified)	0.7
Cc1cc(/C=C2\C(=O)NC(=O)N(c3cccc(F)c3)C2=O)c(C)n1-c1cc(C(=O)O)cc(C(=O)O)c1	10.2
O=C(O)CC(C(=O)O)N1C(=O)/C(=C/c2ccc(-c3nc4ccccc4s3)o2)SC1=S (stereo unspecified)	6.36
O=C(O)CC(C(=O)O)N1C(=O)/C(=C/C=C/c2ccco2)SC1=S (stereo unspecified)	0.96

Compound	IC50 [µM]
Oc1cccc(C=NCc2ccccc2)c1O	1.9
Cc1ccc(C(=O)Nc2ccc(O)c(C(=O)O)c2)o1	3.87
Cc1cc(S(=O)(=O)N(Cc2ccccn2)Cc2ccco2)ccc1-n1cnnn1	83.6
CCOc1ccc(-c2nnn(CC(=O)c3ccc4c(c3)OCCO4)n2)cc1OCC	29.1
COc1ccccc1CNC(=O)COC(=O)c1cc(-c2ccco2)nc2ccccc12	9.99
COc1ccccc1-n1c(-c2cc(-c3ccco3)[nH]n2)n[nH]c1=S	3.11
COc1ccc(NC(=O)c2ccccc2NC(=O)CSc2ccc(Cl)cc2)cc1	57.7
N=C1C=CC(=C(c2ccc(N)cc2)c2ccc(N)cc2)C=C1	3.43
NS(=O)(=O)c1ccc(N/N=C/c2ccc(O)c(O)c2O)c([N+](=O)[O-])c1	0.92
CCN1CCN(C2=NC(=O)/C(=C/c3ccc(C)o3)S2)CC1	3.48
COc1ccc(C2CC(=O)N3CN(c4ccc(C)c(Cl)c4)CSC3=C2C#N)cc1 (stereo unspecified)	81.2
O=C(O)Cc1cccc(=O)c(O)c1C(=O)O	8.19
O=C(NC1=CC(=O)c2ccccc2C1=O)c1ccccc1	20.7
O=C(Nc1cc(Cl)ccn1)C1CCN(S(=O)(=O)c2cccs2)CC1	56.8
Nc1ccccc1NC1=CC(=O)CC(c2ccco2)C1 (stereo unspecified)	49.4
O=C(Nc1ccc(F)cc1)C(c1ccccc1)N1CCN(S(=O)(=O)c2ccc3ccccc3c2)CC1 (stereo unspecified)	13.5
O=[N+]([O-])c1c(NCCO)cc(Sc2nc3ccccc3s2)c2nonc12	34.9
CCOC(=O)c1c(C)oc2c1c(C=NCc1ccccn1)c(O)c1ccccc12	1.86
CCOC(=O)C1=C(N)n2c(s/c(=C\c3ccco3)c2=O)=C(C(=O)OC(C)C)C1c1ccco1 (stereo unspecified)	1.23
O=C(NCc1ccc2c(c1)OCO2)c1cc2ncc(Br)cn2n1	33.7
Cc1cccc(/C=C(\C(=O)O)c2ccc(S(=O)(=O)N3CCCC3)s2)c1	22

Compound	IC50 [µM]
c1coc(-c2nc3nc4ccccc4n3nc2-c2ccco2)c1	12.3
COc1cccc(NC(=O)CSc2nnc(-c3ccco3)c(-c3ccco3)n2)c1	10.2
Cc1ccc(/C=C/C(=O)Nc2cccc(S(=O)(=O)N3CCOCC3)c2)o1	20.9
O=C1NC(=O)N(c2ccccc2)C(=O)/C1=C\c1ccc([N+](=O)[O-])s1	13.4
O=C1NC(=O)C(=Cc2ccc(SC3CCCCC3)o2)C(=O)N1	29
COc1c(OC(C)=O)ccc(/C=C/c2ccc3ccccc3n2)c1[N+](=O)[O-]	97.2
CCOc1ccccc1NC(=O)CCS(=O)(=O)c1ccc(Br)cc1	7.52
O=[N+]([O-])c1ccc(Cl)c(S(=O)(=O)Nc2cccc(S(=O)(=O)NC3=NCCC3)c2)c1	5.64
CC1(CCl)N([O-])C2=C(CCCC2)[N+]1=O (stereo unspecified)	8.49
N#C/C(C(N)=O)=c1/ccc2c(c1)N1C3=C(CCCC3)CC3CCCCC31N=2 (stereo unspecified)	28.2
O=C(Nc1ccn(-c2ccccc2)n1)c1ccccc1Br	10.6
COc1ccc(N=C2NC(=O)/C(=C\C=C\c3ccco3)S2)cc1	2.2
CCN1CCN(c2cc(N3CCN(C(=O)c4ccco4)CC3)c3c4c(onc24)-c2ccccc2C3=O)CC1	3.06
CCn1c(SC(C)C(=O)O)nc2sc3c(c2c1=O)CCC3 (stereo unspecified)	8.89
CSc1nc(NCCOCCO)c2sc3nc(-c4ccco4)c4c(c3c2n1)CCC4	1.41
C=CCN1CCc2cccc3c2[C@H]1Cc1ccc(O)c(O)c1-3	14.8
O=C(COC(=O)c1c2c(nc3ccccc13)/C(=C\c1ccco1)CC2)NC1CCCC1	3.67
COC(=O)CCC(=O)OC1(C)C(=O)C=C2C=C3CCCN3C=C2C1=O (stereo unspecified)	2.23
